From patent US11161824B2, “Heterocyclic lipoxin analogs and uses thereof” (University College Dublin, National University of Ireland, …, priority 2016, dated 2021) come the findings set out here.

For data set [1], the system named is Th1 cytokine release. Nature of the data set: LPS-induced Th1 cytokine release from THP-1 LUCIA monocytes. Type of data set: cell-based. To be noted: 10^-11, 10^-9 or 10^-7 M; 50 ng/ml LPS 24 h; IL1β, IL6, IL12p70, IFNγ, TNF-α as per figure. As for the experimental part:
FIG. 2A-2E are graphs showing imidazole-lipoxin analogues (1R)-9 and (1S)-9 reduce LPS-induced Th1 cytokine release. 1×10^5 THP-1 LUCIA monocytes were pre-treated for 30 min with […], 10^−9 M or 10^−7 M of LXA4 1 and imidazole-lipoxin analogues (1R)-9 and (1S)-9, vehicle or appropriate controls. After 24 h from stimulation with 50 ng/ml of LPS, supernatants were collected and […] (FIG. 2A), IL6 (FIG. 2B), IL12p70 (FIG. 2C), IFNγ (FIG. 2D), and TNF-α (FIG. 2E) levels were measured. Data are expressed as % cytokine secretion relative to LPS alone ±SEM (n=3), *=p<0.05, **=p<0.01, ***=p<0.001.
FIG. 6A-6C are graphs showing that quinoxaline-lipoxin analogue (1R)-CT-4-43 inhibits LPS-induced Th1 cytokine release. 1×10^5 THP-1 LUCIA monocytes were pre-treated for 30 min with […], 10^−9 M or 10^−7 M of LXA4 and quinoxaline-lipoxin analogue (1R)-CT-4-43, vehicle or appropriate controls. After 24 h from stimulation with 50 ng/ml of LPS, supernatants were collected and IL13 (FIG. 6A), IL6 (FIG. 6B), and IFNγ (FIG. 6C) levels were measured. Data are expressed as % cytokine secretion relative to LPS alone ±SEM (n=3), *=p<0.05, **=p<0.01, ***=p<0.001.
FIG. 9A-9C are graphs showing that the isoquinoline-lipoxin analogue RB3 inhibit LPS-induced Th1 cytokine release. 1×10^5 THP-1 LUCIA monocytes were pre-treated for 30 min with 10^−11 M, 10^−9 M or 10^−7 M of LXA4 and isoquinoline-lipoxin analogue (1R)-RB3, vehicle or appropriate controls. After 24 h from stimulation with 50 ng/ml of LPS, supernatants were collected and IL1β(FIG. 9A), IL6 (FIG. 9B), and IL12p70 (FIG. 9C) levels were measured. Data are expressed as % cytokine secretion relative to LPS alone ±SEM (n=3), *=p<0.05, **=p<0.01, ***=p<0.001.

The subject of data set [2] is zymosan-induced peritonitis. Nature of the data set: Murine zymosan-induced peritonitis. It is filed as in vivo, C57BL6/J mice. The settings on record: lavage 24 h. As for the experimental part: As shown in FIG. 17 zymosan [1 mg per mouse in 200 μl H2O] induced a massive influx of leukocytes detected in lavage 24 h post-zymosan. […] Mean of total cell numbers=4.27×10^6/ml [basal]; 5.9×107 [vehicle pretreatment and zymosan]; 2.18×107 [LXA4 pretreatment and zymosan]. Pretreament with (R) and (S) epimers of 9 also attenuated cell influx: 2.5×10^7/ml [pretreatment with (1R)-9 and zymosan; p=0.0368, relative to zymosan alone]; 1.16×107 (1S)-9 [p=0.0048 relative to zymosan alone]. Importantly, (1R)-9 and (1S)-9 were administered at doses of 1.7 ng/g using the same regimen as LXA4. As anticipated the leukocyte influx was predominantly neutrophil [PMN]. PMN numbers were reduced to 35, 44 and 20% maximum response by LXA4, (1R)-9 and (1S)-9 epimers respectively.
Effect of LXA4 1 and imidazole-lipoxin analogues (1R)-9 and (1S)-9 on murine zymosan-induced peritonitis. Peritonitis was induced in groups of 5 male C57BL6/J mice by injection of zymosan (Sigma) i.p. (1 mg per mouse in 200 μl H2O). Mice were treated with LXA4 1; (5 ng/g); (1R)-9 (1.7 ng/g) or (1S)-9 (1.7 ng/g) (200 μl i.p.) 30 minutes prior to zymosan injection and again, 1 hour after zymosan injection. Treatments with LXA4 1, (1R)-9 and (1S)-9 are designated A, B and C respectively. Peritoneal cells were collected by lavage 24 hours after injection of zymosan. Cells were incubated with LIVE/DEAD Fixable Aqua stain (Molecular probes, Invitrogen) to isolate dead cells. Data shown are total cell counts/ml. Surface marker expression on peritoneal cells was assessed by flow cytometry with data collection on a CyAn (Beckman Coulter). Data were analyzed using FlowJo software (Tree Star). Cells were stained with BD Biosciences mAbs; Siglec-F-PE (E50-2440), F4/80-FITC (BM8), eBiosciences mAb; CD11b-PerCP (M1/70) and BioLegend mAbs; CD206-PECy7 (C068C2) and Ly6G-APCCy7 (1A8). Using appropriate isotype-controls, quadrants were drawn and data plotted on logarithmic scale density- or dot-plots to investigate the relative % of PMN, eoisiophils, M1 and M2 macrophgaes. […]

Data set [3] concerns NFkB. Nature of the data set: NFkB-driven luciferase activity in resting conditions (absence of LPS) in THP-1 LUCIA monocytes. Type of data set: cell-based. The settings on record: 10^-12 M to 10^-6 M, 24 h. As for the experimental part:
1×10^5 THP-1 LUCIA monocytes were treated for 30 min with native (a) LXA4 1, its stable imidazole-lipoxin analogues (1R)-9 and (1S)-9, vehicle or appropriate controls, at increasing doses ranging from 10^−12 M up to 10^−6 M. After 24 h, supernatants were collected and NFkB-driven luciferase was measured. Data are expressed as % Relative Luminescence Unit relative to LPS alone ±SEM (n=3).
(§1) The experiments were based around a model which utilised 1×10^5/ml THP-1 monocytes stably expressing NFkB luciferase reporter gene (LUCIA).
(§2) Anti-inflammatory activity was assessed by testing 10 analogues (6 quinoxalines & 4 isoquinolines) in presence & absence of lipopolysaccharide (LPS). For each analogue, a dose-response from 10^−12 M up to 10^−6 M was performed. The vehicle control corresponded to 0.1% Ethanol. NFkB activator, Heat-Killed Listeria Monocytogenes (HKLM) (10^7 cells/ml), were used as positive control for luciferase induction. 10^−6 M Dexamethasone (Dex) was used as positive control for luciferase inhibition. […] Benzo-lipoxin A4 (BLX) was used as positive control for LXA4 analogues.

For data set [4], the system named is NFkB. Put plainly: LPS-induced NFkB-driven luciferase activity in THP-1 LUCIA monocytes. Type of data set: cell-based. The settings on record: for effect on LPS-induced NFkB-driven luciferase activity (in words): doses 10^-12 M to 10^-6 M, 50 ng/ml LPS, 24 h; for reduction of LPS-induced NFkB luciferase activity: 30 min pre-treatment, then 24 h with 50 ng/ml LPS, relative to LPS; for concentration at which maximal inhibition of LPS-induced NFkB activity is reached: dose-response 10^-12 M to 10^-6 M; for potency in reducing LPS-induced NFkB activity, comparison in words: versus LXA4 or other analogues. As for the experimental part:
1×10^5 THP-1 LUCIA monocytes were pre-treated for 30 min with native LXA4 1 (FIG. 1A), imidazole analogues 9 [(1R)-epimer (FIG. 1B) and (1S)-epimer (FIG. 1C)], vehicle or appropriate controls, at increasing doses ranging from 10^−12 M up to 10^−6 M. 10^8 HKLM was used as positive control for NFkB activation. After 24 h from stimulation with 50 ng/ml of LPS, supernatants were collected and NFkB-driven luciferase was measured. (d) Data are expressed as % Relative Luminescence Unit relative to LPS alone ±SEM (n=3), *=p<0.05, **=p<0.01, ***=p<0.001. Graphs display the statistical analysis of the tested compound vs LPS.
as §1, §2
A 2-tailed, assuming unequal variance T-test analysis was performed on three independent experiments for each assay. P-values were considered significant when p<0.05. If p<0.05, then * or $; if p<0.01, then ** or $$ or ##; if p<0.001, then *** or $$$ or ###.
Cells were seeded in 96-well plates and pre-treated with increasing doses of LXA4, analogues or controls for 30 min, followed by 24 h of co-incubation with 50 ng/ml LPS. […] (*=statistical analysis vs LPS; $=statistical analysis vs LXA4)

Data set [5] deals with THP-1 monocytes. As for the experimental part:
Cytotoxicity Prior to functional assay testing, all compounds were screened for any cytotoxic effect, in the presence & absence of LPS, measuring the level of lactate dehydrogenase (LDH) released at A490nm.
The cells were treated as described above and, after 24 h, supernatant was collected and LDH activity assayed.

Setting [6] is: 1.7 ng/g i.p. 30 min before and 1 h after zymosan.

Take `CCCCC[C@@H](O)c1nc(-c2ccccc2)n(-c2ccccc2)c1/C=C/[C@@H](O)[C@@H](O)CCCC(=O)OC` [(1R)-9, Methyl (5S,6R,E)-5,6-dihydroxy-8-(4-((R)-1-hydroxyhexyl)-1,2-diphenyl-1H-imidazol-5-yl)oct-7-enoate]: the “effect on LPS-induced Th1 cytokine release (in words)” value in data set [1] was “reduce”. Moreover, the PMN numbers in data set [2] (setting [6]) is given as 44 % maximum response. In data set [3], the “NFkB-driven luciferase activity in resting conditions (in words)” value is “do not elicit”. Further, in data set [4], the “effect on LPS-induced NFkB-driven luciferase activity (in words)” value was “attenuating”.

With `CCCCCCC[C@@H](O)c1nc2ccccc2nc1/C=C/[C@@H](O)[C@@H](O)CCCC(=O)OC` [(1R)-CT4-63, Methyl (5S,6R,E)-5,6-dihydroxy-8-(3-((R)-1-hydroxyoctyl)quinoxalin-2-yl)oct-7-enoate], the “reduction of LPS-induced NFkB luciferase activity” value (shortened to “reduction”) in data set [4] (1 nM) came to 22.8±7.4%. In addition, in data set [4], the “concentration at which maximal inhibition of LPS-induced NFkB activity is reached” value is listed as 1 nM; the “effect on LPS-induced NFkB-driven luciferase activity (in words)” value is “attenuates”; the “potency in reducing LPS-induced NFkB activity, comparison in words” value is reported as “not significantly different from LXA4”.

As for `CCC[C@@H](O)c1nc2ccccc2nc1/C=C/[C@@H](O)[C@@H](O)CCCC(=O)OC` [(1R)-CT4-68, Methyl (5S,6R,E)-5,6-dihydroxy-8-(3-((R)-1-hydroxybutyl)quinoxalin-2-yl)oct-7-enoate], the “reduction” value in data set [4] (1 uM) is on record as 28.9±6.6%. In addition, the “effect on LPS-induced NFkB-driven luciferase activity (in words)” value in data set [4] was “attenuates”.

For `CCCCC[C@@H](O)c1nc(/C=C/[C@@H](O)[C@@H](O)CCCC(=O)OC)cc2ccccc12` [(1R)-DM-163-RB3], in data set [1], the “effect on LPS-induced Th1 cytokine release (in words)” value is reported as “inhibit”. The “NFkB-driven luciferase activity in resting conditions (in words)” value in data set [3] is “did not elicit”. The “reduction” value in data set [4] (10 nM) is given as 35.4±6.1%. In data set [4] (100 nM), the “reduction” value is given as 37.9±9.7%. For the same compound, in data set [4], the “effect on LPS-induced NFkB-driven luciferase activity (in words)” value is recorded as “attenuates” and the “potency in reducing LPS-induced NFkB activity, comparison in words” value is reported as “most potent”.

Take `CCCCC[C@H](O)c1nc(-c2ccccc2)n(-c2ccccc2)c1/C=C/[C@@H](O)[C@@H](O)CCCC(=O)OC` [(1S)-9, Methyl (5S,6R,E)-5,6-dihydroxy-8-(4-((S)-1-hydroxyhexyl)-1,2-diphenyl-1H-imidazol-5-yl)oct-7-enoate]: in data set [1], the “effect on LPS-induced Th1 cytokine release (in words)” value was “reduce”. This compound came in with a PMN numbers in data set [2] (setting [6]) of 20 % maximum response. The “NFkB-driven luciferase activity in resting conditions (in words)” value in data set [3] is “do not elicit”. In data set [4], the “effect on LPS-induced NFkB-driven luciferase activity (in words)” value is on record as “attenuating”.

Regarding `CCCCC[C@@H](O)c1ncc(/C=C/[C@@H](O)[C@@H]2CCCC(=O)O2)c2ccccc12` [(1S)-DM-178-SB4, (S)-6-((R,E)-1-Hydroxy-3-(1-((R)-1-hydroxyhexyl)isoquinolin-4-yl)allyl)tetrahydro-2H-pyran-2-one], the “reduction” value in data set [4] (1 uM) is 26.8±8.7%. Moreover, in data set [4], the “effect on LPS-induced NFkB-driven luciferase activity (in words)” value is given as “attenuates”.

With `CCCCC[C@@H](O)c1ccccc1/C=C/[C@@H](O)[C@@H](O)CCCC(=O)OC` [Blx], the “effect on LPS-induced LDH activity (cytotoxicity, in words)” value in data set [5] was “significantly (p<0.001) decreased”.

For `CCCCC[C@@H](O)c1c(/C=C/[C@@H](O)[C@@H](O)CCCC(=O)OC)nc(C)n1C` [KG-5-22, (5S,6R,E)-methyl 5,6-dihydroxy-8-(5-((R)-1-hydroxyhexyl)-1,2-dimethyl-1H-imidazol-4-yl)oct-7-enoate], the “NFkB-driven luciferase activity in resting conditions (in words)” value was “did not induce” in data set [3] and “does not elicit” in data set [3] (listed as KG5-22). Moreover, the “reduction” value stood at 43.7±8.9% in data set [4] (1 pM) and 41.3±9.0% in data set [4] (10 pM). For the same compound, the “effect on LPS-induced NFkB-driven luciferase activity (in words)” value in data set [4] is listed as “attenuating”.

Consider `CCCCC[C@H](O)/C=C/C=C\C=C\C=C\[C@@H](O)[C@@H](O)CCCC(=O)O` [LXA4, Lipoxin A4, reference compound], for which the PMN numbers in data set [2] (5 ng/g i.p. 30 min before and 1 h after zymosan) was found to be 35 % maximum response. Besides, the “reduction” value in data set [4] (100 nM) came to 24±1.1%. Moreover, the “concentration at which maximal inhibition of LPS-induced NFkB activity is reached” value in data set [4] was found to be 100 nM.
